# From patent publication US20260306641A1, “HELICASE DEGRADERS” (priority 2023, published 2026)
# Where two headings read alike, the source gives them in different places.
# Key:
# [1] = test system: T1, Nc1ncnc2c1ncn2[C@@H]1O[C@H](COP(=O)(O)OP(=O)(O)OP(=O)(O)O)[C@@H](O)[C@H]1O; assay: hCMG helicase fork-unwinding (strand displacement) assay; format: biochemical, human; conditions: other: role: substrate
# T1 construct: made in house; host or cells: High Five insect cells, baculovirus (11 viruses co-infected)
# Description: (§1) The human CMG helicase was purified following the established and validated protocol of Hurwitz and colleagues(19,20), with minor modifications. A detailed description of the approach is shown here, to allow for comparisons to the methods described by the Hurwitz group.
# (§2) High Five insect cells (2-3 million cells/ml, 1.5 L), were in cultured in a shaking incubator at 27° C. in suspension with ESF921 serum free medium (Expression Systems, CA; cat. #96-001-01), then co-infected for 60 hrs with 11 baculoviruses expressing human 6His2Flag-Cdc45, the human MCM hexamer (Mcm2, Mcm3, Mcm4, Mem5, Mcm6, Mcm7), and human GINS (GST-Sld5, Psf3, Psf2, and Psf1). Each virus was infected at an MOI of ~10 from individual virus stocks. Infected cells were harvested by centrifugation at 650×g for 5 min at 4° C., washed with cold PBS, frozen on dry ice, and stored at −80° C. until use. The cell pellet (~20 mL) was thawed on ice, resuspended in 45 ml Hypotonic Buffer [20 mM Hepes-NaOH (pH 7.5), 5 mM KCl, 1.5 mM MgCl2] with protease inhibitors (1 mM [COMPOUND LEFT OUT], 1 mM Benzamidine, 0.15 μM Aprotinin, 4 μM Leupeptin, and 1 μM Antipain), and kept on ice for 10 min before lysing by Dounce homogenization (tight fitting, 60 strokes). The cell extract was adjusted to 0.42 M potassium acetate and centrifuged at 43,000×g for 1 hr at 4° C. The cleared lysate was mixed with 0.75 ml glutathione beads (cat. #17-0756-05; GE Healthcare) pre-equilibrated with FEQ buffer [20 mM Hepes-NaOH (pH 7.5), 0.42 M potassium acetate, 5 mM KCl, 1.5 mM MgCl2] and incubated by rotation at 4° C. overnight. Following centrifugation at 290×g at 4° C., the bound glutathione beads were washed four times (15 min each wash) with 40 ml of FW buffer [20 mM Hepes-NaOH (pH 7.5), 0.42 M potassium acetate, 1 mM DTT, 1 mM EDTA, 0.01% NP40, 10% glycerol (vol/vol) with protease inhibitors as above] containing protease inhibitors (as above). Bound proteins were eluted at 4° C. three times (1 hr each elution) with 3.5 ml Q buffer [20 mM Hepes-NaOH (pH 7.5), 1 mM DTT, 1 mM EDTA, 0.01% NP40, 10% glycerol (vol/vol), and protease inhibitors as above] containing 0.15 M potassium acetate and 20 mM reduced glutathione. The eluted fractions were combined and applied to a HiTrap Q-Sepharose FF column (HiTrap Q FF 1 mL, cat. #17505301, Cytiva), pre-equilibrated 3× with 5 ml of Q buffer containing 0.15 M, 0.75 M, 0.15M potassium acetate, in sequence. The Q-Sepharose FF column was washed with 10 ml of FW buffer containing protease inhibitors (as above). The proteins were eluted with 10 ml of Q buffer containing 0.75 M potassium acetate. The eluted fraction was mixed with 0.15 ml of anti-Flag M2 affinity gel/beads and incubated while rotating at 4° C. overnight. After centrifugation at 290×g for 5 min at 4° C., the beads were washed three times with 10 ml PreScission buffer [50 mM Tris-HCl (pH 7.5), 0.15 M NaCl, 1 mM DTT, 1 mM EDTA] for 15 min at 4° C., and eluted at 4° C. three times (1 hr each elution) with 0.2 ml PreScission enzyme buffer containing 0.2 mg/ml 3×-Flag peptides. The combined eluates were incubated with 20 Units of PreScission Protease (GE Healthcare) and 0.1 mL glutathione beads for 4 hr at 4° C. The supernatant was layered onto a 15-40% glycerol gradient [25 mM Tris-HCl (pH 7.5), 50 mM NaCl, 1 mM DTT, 1 mM EDTA, 0.01% NP40, protease inhibitors as above] in a 5 mL ultra-centrifugation tube and centrifuged at 260,000×g for 14 hr at 4° C. Glycerol fractions (0.15 mL each fraction) were collected from bottom of tube and stored at −80° C. until use. Typically, fractions 6-9 contained complete hCMG (~750-800 kDa) and co-migrated with thyroglobulin.
# (§3) Helicase fork-unwinding assays were performed at 37° C. for 1 hr in 20 μL reaction volumes using 2-4 μl of hCMG (~15-30 fmol), in a buffer consisting of 25 mM Hepes-NaOH (pH 7.5), 5 mM NaCl, 0.5 mM ATP, 10 mM magnesium acetate, 1 mM DTT, 0.1 mg/ml bovine serum albumin (BSA), and ~10 fmol of radiolabeled DNA forks (20). […]
# [2] = test system: T2, human CMG helicase (hCMG); assay: hCMG ATPase activity, FP ADP^2 Transcreener assay; format: biochemical; conditions: primary FP ATPase assay
# T2 construct: made in house; host or cells: High Five insect cells, baculovirus (11 viruses co-infected)
# T2 sequence (P49736 whole entry): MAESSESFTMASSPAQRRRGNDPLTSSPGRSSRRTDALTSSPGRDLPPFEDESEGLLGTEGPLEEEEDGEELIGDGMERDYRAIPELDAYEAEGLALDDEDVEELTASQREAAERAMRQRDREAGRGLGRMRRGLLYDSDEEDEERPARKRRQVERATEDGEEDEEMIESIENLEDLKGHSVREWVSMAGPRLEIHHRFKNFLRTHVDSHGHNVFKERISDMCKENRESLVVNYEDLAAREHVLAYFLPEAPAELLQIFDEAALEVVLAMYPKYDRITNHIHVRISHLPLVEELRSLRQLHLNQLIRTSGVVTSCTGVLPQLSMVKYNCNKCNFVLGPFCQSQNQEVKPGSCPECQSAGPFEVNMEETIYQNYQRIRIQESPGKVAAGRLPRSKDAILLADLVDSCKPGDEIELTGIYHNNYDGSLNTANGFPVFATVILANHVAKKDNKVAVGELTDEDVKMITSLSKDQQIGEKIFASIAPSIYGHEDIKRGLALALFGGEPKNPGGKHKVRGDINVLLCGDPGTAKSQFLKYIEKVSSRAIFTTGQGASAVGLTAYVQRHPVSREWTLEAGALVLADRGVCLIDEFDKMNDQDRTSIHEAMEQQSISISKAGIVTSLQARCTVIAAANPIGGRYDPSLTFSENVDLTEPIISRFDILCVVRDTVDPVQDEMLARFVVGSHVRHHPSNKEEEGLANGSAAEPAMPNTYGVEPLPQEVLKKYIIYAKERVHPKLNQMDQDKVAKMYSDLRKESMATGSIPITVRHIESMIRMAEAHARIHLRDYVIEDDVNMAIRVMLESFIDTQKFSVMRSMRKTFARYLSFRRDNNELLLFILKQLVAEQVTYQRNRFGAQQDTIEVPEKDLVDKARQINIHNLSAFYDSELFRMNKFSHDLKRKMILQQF
# T2 sequence (P25205 whole entry, further chain): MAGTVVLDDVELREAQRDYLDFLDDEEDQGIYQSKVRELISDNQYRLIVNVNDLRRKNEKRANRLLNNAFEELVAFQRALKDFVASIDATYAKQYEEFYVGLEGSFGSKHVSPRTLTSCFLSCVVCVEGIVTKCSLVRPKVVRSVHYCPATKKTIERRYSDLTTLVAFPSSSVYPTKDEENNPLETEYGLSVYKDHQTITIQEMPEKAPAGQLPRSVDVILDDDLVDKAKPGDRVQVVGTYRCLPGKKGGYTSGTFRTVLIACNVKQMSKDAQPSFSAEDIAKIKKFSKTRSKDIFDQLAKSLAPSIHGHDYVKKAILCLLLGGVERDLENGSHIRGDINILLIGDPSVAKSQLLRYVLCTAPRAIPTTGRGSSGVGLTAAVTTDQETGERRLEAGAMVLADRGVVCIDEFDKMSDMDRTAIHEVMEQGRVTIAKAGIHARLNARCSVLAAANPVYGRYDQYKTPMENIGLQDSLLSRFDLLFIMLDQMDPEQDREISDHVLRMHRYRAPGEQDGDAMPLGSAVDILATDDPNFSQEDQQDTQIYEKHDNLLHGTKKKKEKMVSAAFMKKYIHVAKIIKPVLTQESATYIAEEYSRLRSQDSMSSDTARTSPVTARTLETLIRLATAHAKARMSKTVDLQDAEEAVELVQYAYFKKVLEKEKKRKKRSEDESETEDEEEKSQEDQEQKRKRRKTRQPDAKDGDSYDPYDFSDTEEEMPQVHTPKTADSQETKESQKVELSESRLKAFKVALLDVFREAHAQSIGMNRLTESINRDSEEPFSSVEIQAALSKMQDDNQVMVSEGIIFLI
# T2 sequence (P33991 whole entry, further chain): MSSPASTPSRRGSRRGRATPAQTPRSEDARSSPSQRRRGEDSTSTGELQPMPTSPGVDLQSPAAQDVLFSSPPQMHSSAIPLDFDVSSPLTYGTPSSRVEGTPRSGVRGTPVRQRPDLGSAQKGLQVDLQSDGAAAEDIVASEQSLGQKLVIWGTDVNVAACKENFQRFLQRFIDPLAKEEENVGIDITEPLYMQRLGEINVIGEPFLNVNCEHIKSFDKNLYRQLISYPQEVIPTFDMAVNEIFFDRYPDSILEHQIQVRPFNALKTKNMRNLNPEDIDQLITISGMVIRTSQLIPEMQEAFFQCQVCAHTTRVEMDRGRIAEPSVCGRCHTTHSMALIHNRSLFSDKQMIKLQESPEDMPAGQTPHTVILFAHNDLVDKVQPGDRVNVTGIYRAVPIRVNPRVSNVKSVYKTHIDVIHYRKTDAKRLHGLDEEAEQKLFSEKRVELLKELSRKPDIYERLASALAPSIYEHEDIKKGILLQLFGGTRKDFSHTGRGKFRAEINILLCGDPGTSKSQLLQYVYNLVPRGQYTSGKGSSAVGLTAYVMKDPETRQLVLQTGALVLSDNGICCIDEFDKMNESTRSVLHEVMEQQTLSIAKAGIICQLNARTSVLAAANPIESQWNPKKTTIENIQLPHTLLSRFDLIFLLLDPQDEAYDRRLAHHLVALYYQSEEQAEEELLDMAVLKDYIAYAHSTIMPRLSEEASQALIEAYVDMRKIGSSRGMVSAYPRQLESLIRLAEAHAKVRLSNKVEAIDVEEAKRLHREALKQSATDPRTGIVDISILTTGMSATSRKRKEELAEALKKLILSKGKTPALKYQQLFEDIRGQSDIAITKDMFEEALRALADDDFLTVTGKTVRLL
# T2 sequence (P33992 whole entry, further chain): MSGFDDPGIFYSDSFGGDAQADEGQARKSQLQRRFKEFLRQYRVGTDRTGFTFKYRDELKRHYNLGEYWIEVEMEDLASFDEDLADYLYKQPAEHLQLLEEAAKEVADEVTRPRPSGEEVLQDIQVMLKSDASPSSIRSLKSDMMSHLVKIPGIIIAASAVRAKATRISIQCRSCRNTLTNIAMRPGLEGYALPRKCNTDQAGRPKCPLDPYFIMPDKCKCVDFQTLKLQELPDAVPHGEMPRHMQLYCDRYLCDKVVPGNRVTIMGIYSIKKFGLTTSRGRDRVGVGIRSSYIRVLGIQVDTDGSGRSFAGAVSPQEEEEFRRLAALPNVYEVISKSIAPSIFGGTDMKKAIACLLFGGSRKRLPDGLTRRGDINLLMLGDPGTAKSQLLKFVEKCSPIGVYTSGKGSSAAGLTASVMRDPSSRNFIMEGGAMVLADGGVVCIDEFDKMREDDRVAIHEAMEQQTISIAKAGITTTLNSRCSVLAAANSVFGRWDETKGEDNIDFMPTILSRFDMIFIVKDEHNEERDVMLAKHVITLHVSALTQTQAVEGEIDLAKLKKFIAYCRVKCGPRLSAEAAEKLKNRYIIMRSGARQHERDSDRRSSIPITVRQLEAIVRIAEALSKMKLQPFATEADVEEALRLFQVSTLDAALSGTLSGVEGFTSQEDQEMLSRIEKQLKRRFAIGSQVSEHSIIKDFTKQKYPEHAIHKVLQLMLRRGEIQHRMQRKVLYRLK
# T2 sequence (Q14566 whole entry, further chain): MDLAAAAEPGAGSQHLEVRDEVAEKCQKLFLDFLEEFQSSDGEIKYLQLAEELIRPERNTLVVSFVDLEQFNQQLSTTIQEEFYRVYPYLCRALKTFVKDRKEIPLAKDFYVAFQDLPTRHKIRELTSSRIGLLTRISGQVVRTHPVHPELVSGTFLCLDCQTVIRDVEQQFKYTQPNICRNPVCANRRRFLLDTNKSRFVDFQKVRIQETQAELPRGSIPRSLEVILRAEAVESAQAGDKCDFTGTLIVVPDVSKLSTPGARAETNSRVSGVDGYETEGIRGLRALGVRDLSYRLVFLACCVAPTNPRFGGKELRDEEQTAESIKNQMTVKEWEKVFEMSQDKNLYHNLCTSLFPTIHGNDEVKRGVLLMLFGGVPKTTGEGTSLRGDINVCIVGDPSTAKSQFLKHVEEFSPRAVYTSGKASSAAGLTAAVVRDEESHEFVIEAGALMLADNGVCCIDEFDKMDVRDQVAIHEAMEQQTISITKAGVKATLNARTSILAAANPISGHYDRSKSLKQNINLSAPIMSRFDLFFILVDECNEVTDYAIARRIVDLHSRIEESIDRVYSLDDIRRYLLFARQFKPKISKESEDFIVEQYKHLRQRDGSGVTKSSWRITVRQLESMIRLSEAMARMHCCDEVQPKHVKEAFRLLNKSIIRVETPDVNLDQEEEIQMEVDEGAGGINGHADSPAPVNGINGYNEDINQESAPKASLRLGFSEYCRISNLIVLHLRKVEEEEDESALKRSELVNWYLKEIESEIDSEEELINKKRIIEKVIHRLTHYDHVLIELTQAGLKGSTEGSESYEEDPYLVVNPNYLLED
# T2 sequence (P33993 whole entry, further chain): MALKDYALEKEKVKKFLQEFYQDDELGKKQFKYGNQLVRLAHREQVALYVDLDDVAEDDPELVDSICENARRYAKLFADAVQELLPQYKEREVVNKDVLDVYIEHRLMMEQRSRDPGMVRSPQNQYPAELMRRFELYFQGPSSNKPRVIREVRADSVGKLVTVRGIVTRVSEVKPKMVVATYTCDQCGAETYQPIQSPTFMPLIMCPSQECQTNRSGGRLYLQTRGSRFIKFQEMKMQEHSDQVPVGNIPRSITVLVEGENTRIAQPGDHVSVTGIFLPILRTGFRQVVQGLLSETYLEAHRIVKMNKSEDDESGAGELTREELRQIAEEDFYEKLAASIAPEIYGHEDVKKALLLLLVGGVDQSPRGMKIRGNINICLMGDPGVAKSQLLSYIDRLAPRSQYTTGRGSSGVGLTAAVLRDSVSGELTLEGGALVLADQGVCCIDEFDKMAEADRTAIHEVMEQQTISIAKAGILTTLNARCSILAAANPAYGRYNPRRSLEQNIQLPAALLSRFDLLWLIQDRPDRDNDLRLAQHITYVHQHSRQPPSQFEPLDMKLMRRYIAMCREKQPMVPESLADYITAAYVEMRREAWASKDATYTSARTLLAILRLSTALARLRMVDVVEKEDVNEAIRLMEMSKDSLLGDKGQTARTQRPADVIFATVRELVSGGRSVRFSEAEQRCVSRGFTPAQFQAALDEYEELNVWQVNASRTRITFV
# Description: The fluorescent-polarization (FP) ADP-sensing assays were performed using the Transcreener® ADP^2 FP assay kit (cat #3010-1K, Bellbrook Labs). For hCMG inhibitor screening, assays were performed at 37° C. for 1 hr in 10 μl reactions in a 384-well plate (cat. #4514, Corning) using 2 μL of hCMG (~15 fmol), 25 mM Hepes-NaOH (pH 7.5), 10 mM NaCl, 0.5 mM ATP, 10 mM magnesium acetate, 1 mM DTT, 0.1 mg/ml BSA, and DNA fork substrates. […] Selected inhibitors or samples from a chemical library were added into the reactions when conducting the screening or testing inhibitor effectiveness. The NCI Diversity Set VI chemical library was obtained from the National Cancer Institute (Bethesda, MD).
# The window of sensitivity for the ADP-sensing assays is determined by setting up two 10 μL control samples without any added hCMG helicase: a Low-FP mixture (4 nM ADP Alexa Fluor-633 Tracer alone) and a High-FP mixture (4 nM ADP Alexa Fluor-633 Tracer plus patented anti-ADP^2 Antibody). The amount of ADP^2 Antibody used had to be adjusted to account for the use of 500 μM ATP in our hCMG assays, versus 10 μM ATP in enzyme reactions typically assessed with standard kits prepared by BellBrook Labs. […] This was done according to the manufacturer by performing a titration with increasing ADP^2 Antibody, fixed 4 nM ADP Alexa Fluor-633 Tracer, and 500 μM ATP to determine the ~EC80-85 for millipol (mP) changes, which determined the optimal ADP^2 Antibody concentration to use as 0.64 mg/ml (FIG. 9A). Samples are read with a Perkin Elmer Envision II plate reader with optimized Cy5 (far-red) FP-compatible mirror and cubes (cat #2100-8390, Perkin Elmer). The Low-FP sample is the least polarized and gives a low mP reading, while the High-FP sample is the most polarized and gives the highest mP reading. The difference between the Low-FP and High-FP values defines the FP assay window, which is normally in a range of 150-200 mP under ideal conditions for screening purposes. The hCMG helicase hydrolyzes ATP to ADP and decreases the mP reading within this window, with an ideal change (ΔmP) in the FP window of at least 50% to be in a readable range for inhibitor screening (as per manufacturer). Potential hCMG chemical inhibitors reverse this effect and cause the mP readings to increase.
# We performed a titration with increasing and decreasing concentrations of ADP and ATP, respectively, to assess the sensitivity of the FP assay in detecting ADP production (FIG. 9B). Consistent with the stated manufacturer predictions, the assay can reliably detect 1-3% changes in ADP production (i.e., 5-15 μM ADP production) in starting concentrations of ATP of 500 μM, with a Z′ efficiency between 0.6-0.8 (determined following manufacturer protocols).
# Once the hCMG enzyme reactions are complete, 10 μL of 1× Stop Solution and Detection Buffer (buffer from BellBrook Labs; containing 4 nM ADP Alexa Fluor-633 Tracer plus ADP^2 Antibody) are added to each reaction, and to the High-FP control. The Low-FP control receives 10 μL of 1× Stop Solution and Detection Buffer containing only 4 nM ADP Alexa Fluor-633 Tracer (no Antibody). Samples are incubated at 25° C. for 1 hr, then read in the plate reader. […] Plate readings from these tests of potential positive hits should be similar to that seen with the Low-FP control, or such hits may instead be false-positives.
# [3] = test system: solid tumor cell lines (NCI-60 set); conditions: cited from earlier work
# [4] = test system: T2, human CMG helicase (hCMG); assay: hCMG helicase fork-unwinding (strand displacement) assay; format: biochemical
# Description: as §1, §2, §3
# [5] = test system: T2, human CMG helicase (hCMG); conditions: role: substrate, cited from earlier work
# [6] = test system: Cdk1 and Cdk2 targets (Rb, Cdc6, PP1a); assay: Immunoblot of Cdk1/Cdk2-dependent targets, HaCaT cells; format: cell-based, human; conditions: extended exposure (18 hrs)
# Description: Immunoblots of total proteins from synchronized HaCaT cells treated with compounds at time of release (0 hr; beginning of G1 phase) and collected after 18 hrs of exposure. (FIG. 5A) DDK-dependent phosphorylation sites on Mcm2 were analyzed with phospho-specific antibodies. (FIG. 5B) Cdk1- and Cdk2-dependent targets (Rb, Cdc6, and PP1α) were analyzed with phospho-specific antibodies.
molecule,measurement,setting,value
human CMG helicase (hCMG) (Homo sapiens),Km,[1]; inhibitor CA1 2.5 μM present,1550 µM
same,Km,[1]; no inhibitor,690 µM
CO[C@@H]1[C@@H](OC(=O)c2ccc(C)[nH]2)[C@@H](O)[C@H](Oc2ccc3c(O)c(NC(=O)c4ccc(O)c(CC=C(C)C)c4)c(=O)oc3c2Cl)OC1(C)C [clorobiocin],inhibition of hCMG ATP hydrolysis,[2],effective nature of hCMG inhibition
same,growth suppression of solid tumor cell lines,[3],sensitive to similar low micromolar concentrations
same,hCMG helicase inhibition in secondary strand-displacement assay,[4]; 500 μM compound,effective hCMG helicase inhibitors
Nc1ncnc2c1ncn2[C@@H]1O[C@H](COP(=O)(O)OP(=O)(O)OP(=O)(O)O)[C@@H](O)[C@H]1O [ATP],ATP hydrolysis rate of the human helicase,[5]; 500 μM ATP,−80 mol-ADP per minute per mol-hCMG
same,Km,"[5]; described by others, read-out: Km for hCMG ATP hydrolysis activity",625 µM
same,Vmax of the hCMG,"[4]; role: substrate, inhibitor CA1 2.5 μM present",without a change in the Vmax
same,Km,"[4]; role: substrate, no inhibitor, read-out: Km for ATP, fork-unwinding activity",690 µM
O=C(NC1CCNCC1)c1[nH]ncc1NC(=O)c1c(Cl)cccc1Cl [AT7519],"phosphorylation of Cdk2 targets Rb, Cdc6 (S54P) and Cdk1 target PP1a",[6],blocks phosphorylation
